Earlier results in patent US6436991B1, “Composition and method containing products extracted from Commiphora sp. for prevention and treatment of abnormal cell growth and proliferation in inflammation, neoplasia and cardiovascular disease” (Sabinsa Corporation, priority 2000, dated 2002).

Settings: literature values; read-out: IC50, DPPH radical scavenging (reported, Chen and Ho 1995)

In the case of catechin, the IC50 is given as 18.6 µM.
For O=C(O)c1cc(O)c(O)c(O)c1 [gallic acid], the IC50 is given as 10.6 µM.
